From US12589090B2, “Compounds and methods for the treatment of degenerative disorders” (Aquilus Pharmaceuticals, Inc., priority 2019, dated 2026)
“Also recorded” adds a separate entry of the source.

How the values were obtained:
Caspase 3 = Caspase 3 protein level in dorsal root ganglion of SNL rats via Western blotting (Examples 10, 17); type: in vivo, Sprague Dawley rats; conditions: Left DRG of SNL rats, 160 mg/Kg PO for 5 days, vs. Vehicle treated SNL rats, unpaired t-test
Description: Western blotting is a widely used analytical technique used to detect specific proteins in a sample of tissue homogenate or extract. Before one can perform Western blotting one must develop a technique for extracting the protein to be measured from the target tissue. Below is an example of the measurement of Caspase 3 from rat dorsal root ganglion (DRG) using Western blotting.
Protein Extraction Preparation: Frozen DRG tissue samples were homogenized in a radioimmunoprecipitation assay (RIPA) buffer (75 μl per sample) using a handheld pestle homogenizer, 30 seconds on ice. Samples were cleared by centrifugation at 14,000 rpm for 15 minutes at 4° C. Supernatants were collected and protein amount was determined using Bio-Rad DC protein kit.
Western Blotting: Protein samples were denatured in Laemmli buffer/2-mercaptoethanol for 5 minutes at 95 C. Denatured protein samples were separated by SDS-PAGE. After electrophoresis, proteins were transferred from gel to LFP-PVDF membranes by electroblotting. […]
Antibody binding was detected using the ECL Plus Western Chemifluorescence Detection Kit (Cat #32132, ThermoFisher Scientific). […] The scanned images from the Typhoon were analyzed with ImageQuantTL software version 7.0 (GE Healthcare Bioscience, Piscataway, NJ). Band intensities were determined using the Rolling Ball method. […]

[1] = In-vivo oral PK of Compound 118 in SOD-1 mice (Example 19); parameters: species or system SOD-1-G93A (SOD-1) mice; conditions: for AUC / Cmax: SOD-1-G93A, mouse, po, PO 200 mg/Kg for 3 days
Experimental: The present example orally doses compound 118 once per day (SID) or twice per day (BID) for three days to a series of mice that have overexpression for the protein copper-zinc superoxide dismutase 1. Compound 118 was orally dosed in SOD-1-G93A (SOD-1) mice in a PK study. In summary, SOD-1 mice (At P100±4 days of age) received twice daily (BID) or once daily (SID) oral administration of 200 mg/Kg Compound 118 (as an aqueous suspension in 0.5% methylcellulose) for 3 days (Table 6). Plasma was collected from the tail vein at baseline (pre-dose), 15 min, 30 min, 1 h, 2 h, 4 h post-last PO dose on the third day. One animal from each group was euthanized 2 hrs. post dose on the third day of dosing where plasma, spinal cord, and brain tissue was collected post-mortem. The remaining 3 animals per group was euthanized six hours after the final dose on the third day, plasma, spinal cord, and brain tissue was then collected post-mortem. […] There was a significant difference in clearance of Compound 118 within plasma between male and female SOD-1 mice. […] Given the sex difference in clearance, it will be necessary to increase the amount that male SOD-1 mice are dosed compared to females SOD-1 mice in order maintain parity in exposure between the sexes.

[2] = tested on: TDP-43 overexpressed flies; assay: TDP-43 pupal lethality screen (Example 23); type: in vivo, Drosophila; conditions: larvae raised on 1 microMolar; DMSO control 51%
Experimental: Procedure: UAS TDP-43 male Drosophila flies were crossed with D42-Gal4 female virgins on fly food containing either DMSO or 1% Compound 118 in dimethyl sulfoxide (DMSO). For DMSO controls, the same volume of DMSO as the corresponding Compound 118 concentration was added. Bromophenol blue was added to a final concentration of around 0.02% to ensure homogeneity. Crosses were made on drug food with three female virgins and two males in each vial and were maintained at 25° C. unless noted. The parents were discarded after 5-7 days and then the vials were screened for adult progeny with straight wings from Day 14 to Day 25. All adults were screened for TDP-43 expression by visualizing the YFP tag. Total number of pupae was counted on Day 25. Percent survival was calculated using the formula (total number of straight-winged adults/total number of pupae)×100. All experiments were performed in triplicate. Read-outs include larval turning assay and pupil lethality screen.
Compound 118 (represented as AQU-118) caused a decrease in lethality from 51% (bottom left) to 39% (bottom right). In this screen the number of adult TDP-43 overexpressed flies that emerge from their pupae stage is compared to w1118 controls. Larvae were raised on either DMSO or Compound 118 at 1 microMolar. N=number of pupae counted. Alive=empty pupal cases, adults have emerged. […]

Dissociation constant = type: physicochemical
[3] = female, plasma, 200 mg/kg, Female SOD-1 mice, BID
[4] = female, plasma, 200 mg/kg, Female SOD-1 mice, SID
[5] = male, plasma, 200 mg/kg, Male SOD-1 mice, BID
[6] = male, plasma, 200 mg/kg, Male SOD-1 mice, SID

**Q.** With `[2H]C([2H])([2H])c1ccc(C#Cc2ccc(S(=O)(=O)N[C@H](Cc3c[nH]c4ccccc34)C(=O)O)s2)cc1` [Compound 118, (R)-3-(1H-Indol-3-yl)-2-[5-(4-trideuteromethyl-phenylethynyl)-thiophene-2-sulfonylamino]-propionic acid-(D3, 98%)] as the compound, how does the “caspase 3 protein level in dorsal root ganglion (Western blotting)” value (Caspase 3) read?
**A.** significant decrease of caspase 3 protein; also recorded: decrease in the caspase-3 protein levels

**Q.** What about the “AUC in Female SOD-1 mice relative to male SOD-1 mice” value ([1]; 200 mg/Kg PO, plasma) of the same compound?
**A.** 3-4 times

**Q.** What about the “concentration in the spinal cord” value ([1]; SOD-1 mice, 200 mg/Kg PO, T=2 hour from last dose on third day) of the same compound?
**A.** 200-400 ng of AQU-118/gram spinal tissue

**Q.** What about the “oral bioavailability in plasma” value ([1]; SOD-1 mice, 200 mg/Kg PO, 200 mg/kg) of the same compound?
**A.** good oral bioavailability

**Q.** And the “oral bioavailability in plasma” value ([1]; SOD-1 mice, 200 mg/Kg PO, listed as AQU-118, 200 mg/kg)?
**A.** good bioavailability in plasma

**Q.** And the AUC [1, 3]?
**A.** 394 µg·h/mL

**Q.** And the Cmax [1, 3]?
**A.** 111 µg/mL

**Q.** And the AUC [1, 4]?
**A.** 342 µg·h/mL

**Q.** And the Cmax [1, 4]?
**A.** 96 µg/mL

**Q.** What about the AUC [1, 5] of the same compound?
**A.** 115 µg·h/mL

**Q.** And the Cmax [1, 5]?
**A.** 39.1 µg/mL

**Q.** And the AUC [1, 6]?
**A.** 121 µg·h/mL

**Q.** And the Cmax [1, 6]?
**A.** 44.5 µg/mL

**Q.** What about the “lethality (dead pupae)” value [2] of the same compound?
**A.** 39%

**Q.** What about the dissociation constant (Dissociation constant) of the same compound?
**A.** around 3.4
